Laboratory results as given in ChEMBL document CHEMBL1152778, “Design, synthesis, and biological evaluation of (2R,alphaS)-3,4-dihydro-2-[3-(1,1,2,2-tetrafluoroethoxy)phenyl]-5-[3-(trifluoromethoxy)-phenyl]-alpha-(trifluoromethyl)-1(2H)-quinolineethanol as potent and orally active cholesteryl ester transfer protein inhibitor” (J Med Chem, 2009).
Active and inactive are the calls of the source. The calls are words filed in the database; no cut-off is given here.

Columns and labels:
[1] = Metabolic stability in human liver microsomes assessed as half life; type: ADME, Microsome
[2] = target: T1, Cholesteryl ester transfer protein (Homo sapiens, UniProt P11597); experiment: Inhibition of human plasma-derived CETP activity by scintillation proximity assay; type: cell-free
T1 sequence (P11597 whole entry): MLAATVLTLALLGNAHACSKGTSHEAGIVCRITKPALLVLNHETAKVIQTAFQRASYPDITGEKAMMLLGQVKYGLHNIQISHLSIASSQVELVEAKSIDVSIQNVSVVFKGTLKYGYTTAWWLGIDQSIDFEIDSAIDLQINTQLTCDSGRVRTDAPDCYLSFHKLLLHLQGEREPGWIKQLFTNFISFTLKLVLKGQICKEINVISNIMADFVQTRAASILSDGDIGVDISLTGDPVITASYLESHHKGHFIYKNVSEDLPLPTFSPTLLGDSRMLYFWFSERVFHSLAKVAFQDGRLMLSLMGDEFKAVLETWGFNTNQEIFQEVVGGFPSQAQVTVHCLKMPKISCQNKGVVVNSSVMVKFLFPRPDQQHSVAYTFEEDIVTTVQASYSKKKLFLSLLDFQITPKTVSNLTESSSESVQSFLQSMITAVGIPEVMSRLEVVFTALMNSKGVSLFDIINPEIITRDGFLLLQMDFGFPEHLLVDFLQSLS

Cynomolgus monkey [3] = experiment: Increase in HDLC level in normal chow diet-fed cynomolgus monkey at 30 mg/kg, po for 5 days measured after 10 hrs of last dose; type: functional, Macaca fascicularis
Cynomolgus monkey [4] = experiment: Ex vivo inhibition of CETP in po dosed normal chow diet-fed cynomolgus monkey by Roar assay; type: functional, organism-based; conditions: Macaca fascicularis
Mus musculus [5] = experiment: Increase in HDLC level in po dosed normal chow diet-fed human CETP transgenic mouse model; type: functional, organism-based
Cynomolgus monkey [6] = experiment: Increase in HDLC level in po dosed normal chow diet-fed cynomolgus monkey; type: functional, organism-based; conditions: Macaca fascicularis
[7] = AUC in rat at 2 to 3 mg/kg, iv and 10 mg/kg, po; type: ADME, organism-based; conditions: plasma
Mus musculus [8] = experiment: Increase in HDLC level in normal chow diet-fed human CETP transgenic mouse model at 10 mg/kg, po for 5 days measured after 2 hrs of last dose; type: functional
Hamster [9] = experiment: Increase in HDLC level in po dosed high-fat fed hamster model; type: functional, organism-based; conditions: Cricetinae
Cynomolgus monkey [10] = experiment: Increase in HDLC level in normal chow diet-fed cynomolgus monkey at 10 mg/kg, po for 5 days measured after 10 hrs of last dose; type: functional, Macaca fascicularis
[11] = Volume of distribution at steady state in rat at 2 to 3 mg/kg, iv and 10 mg/kg, po; type: ADME, organism-based; conditions: in vivo, read-out: Vdss
[12] = target: T1, Cholesteryl ester transfer protein; experiment: Inhibition of CETP-mediated transfer of cholesteryl ester to LDL/VLDL in human plasma by Roar assay; type: cell-free
[13] = Oral bioavailability in dog at 10 mg/kg; type: ADME, organism-based, Canis lupus familiaris; conditions: in vivo
Cynomolgus monkey [14] = experiment: Ex vivo inhibition of CETP in normal chow diet-fed cynomolgus monkey at 10 mg/kg, po for 5 days by Roar assay; type: functional; conditions: Macaca fascicularis, 120 h
Hamster [15] = experiment: Increase in HDLC level in high-fat fed hamster model at 10 mg/kg, po for 5 days measured after 2 hrs of last dose; type: functional, Cricetinae
[16] = target: Phospholipid transfer protein (Homo sapiens) (UniProt P55058); experiment: Inhibition of PLTP activity assessed as phosphatidylcholine transferred from [3H]phosphatidylcholine (dipalmitoyl)-labeled liposomes to HDL by cell based liquid scintillation counter
Chain of Phospholipid transfer protein (Homo sapiens) (P55058 whole entry): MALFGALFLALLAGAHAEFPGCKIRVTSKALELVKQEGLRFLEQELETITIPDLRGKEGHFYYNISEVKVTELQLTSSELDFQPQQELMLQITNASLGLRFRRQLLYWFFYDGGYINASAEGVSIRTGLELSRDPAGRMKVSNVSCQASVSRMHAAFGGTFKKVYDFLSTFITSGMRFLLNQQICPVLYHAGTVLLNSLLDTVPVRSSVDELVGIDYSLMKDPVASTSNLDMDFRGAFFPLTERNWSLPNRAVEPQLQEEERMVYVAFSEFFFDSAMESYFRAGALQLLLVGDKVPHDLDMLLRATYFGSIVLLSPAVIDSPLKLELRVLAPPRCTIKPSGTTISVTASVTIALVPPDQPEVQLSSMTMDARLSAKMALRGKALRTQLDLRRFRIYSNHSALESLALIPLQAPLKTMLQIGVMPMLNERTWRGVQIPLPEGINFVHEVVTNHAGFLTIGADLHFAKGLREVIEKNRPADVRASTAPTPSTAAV

Mus musculus [17] = experiment: Increase in HDLC level in normal chow diet-fed human CETP transgenic mouse model at 30 mg/kg, po for 5 days measured after 2 hrs of last dose; type: functional
[18] = target: T2, Lipoprotein lipase (Homo sapiens) (UniProt P06858); experiment: Inhibition of lipoprotein lipase activity assessed as release of free fatty acid from hydrolysis of VLDL by cell based assay
T2 sequence (whole entry): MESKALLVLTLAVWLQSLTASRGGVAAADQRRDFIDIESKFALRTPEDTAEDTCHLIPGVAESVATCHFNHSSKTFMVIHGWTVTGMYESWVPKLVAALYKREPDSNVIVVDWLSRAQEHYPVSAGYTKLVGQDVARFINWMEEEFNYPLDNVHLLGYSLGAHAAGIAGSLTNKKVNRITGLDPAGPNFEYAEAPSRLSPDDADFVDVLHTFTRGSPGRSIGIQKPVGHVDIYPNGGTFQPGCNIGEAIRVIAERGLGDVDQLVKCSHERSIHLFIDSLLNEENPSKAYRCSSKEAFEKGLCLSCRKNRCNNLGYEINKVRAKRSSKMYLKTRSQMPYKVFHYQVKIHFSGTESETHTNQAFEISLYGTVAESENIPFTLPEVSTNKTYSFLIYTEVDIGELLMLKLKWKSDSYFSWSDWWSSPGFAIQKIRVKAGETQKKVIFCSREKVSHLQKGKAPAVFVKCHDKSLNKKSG

[19] = target: T3, Microsomal triglyceride transfer protein large subunit (Homo sapiens) (UniProt P55157); experiment: Inhibition of microsomal triglyceride transfer protein by cell based assay
T3 sequence (whole entry): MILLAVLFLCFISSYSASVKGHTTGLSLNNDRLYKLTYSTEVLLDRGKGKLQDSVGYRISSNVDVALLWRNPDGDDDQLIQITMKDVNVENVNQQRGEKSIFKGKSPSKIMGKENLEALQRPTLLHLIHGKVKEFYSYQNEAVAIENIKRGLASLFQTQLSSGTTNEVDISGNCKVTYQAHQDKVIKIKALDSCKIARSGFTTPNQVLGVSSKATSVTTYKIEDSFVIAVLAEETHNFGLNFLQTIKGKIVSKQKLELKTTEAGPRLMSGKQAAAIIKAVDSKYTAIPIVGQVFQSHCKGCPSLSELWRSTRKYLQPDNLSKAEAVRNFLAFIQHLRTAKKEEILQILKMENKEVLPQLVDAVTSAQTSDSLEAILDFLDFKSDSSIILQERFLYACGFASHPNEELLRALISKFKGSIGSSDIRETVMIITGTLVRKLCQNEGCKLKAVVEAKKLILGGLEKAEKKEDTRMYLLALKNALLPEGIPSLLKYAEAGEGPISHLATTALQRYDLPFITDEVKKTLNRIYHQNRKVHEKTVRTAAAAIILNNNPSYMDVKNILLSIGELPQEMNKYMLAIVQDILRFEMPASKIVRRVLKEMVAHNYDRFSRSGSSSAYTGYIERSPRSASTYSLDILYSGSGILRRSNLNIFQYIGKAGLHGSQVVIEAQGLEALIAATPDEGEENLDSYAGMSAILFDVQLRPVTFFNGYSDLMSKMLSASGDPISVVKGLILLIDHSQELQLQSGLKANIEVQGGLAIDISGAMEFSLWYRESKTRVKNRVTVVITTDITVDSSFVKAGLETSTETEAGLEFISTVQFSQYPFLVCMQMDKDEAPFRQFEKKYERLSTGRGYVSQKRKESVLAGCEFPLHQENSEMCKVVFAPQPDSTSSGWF

[20] = Oral bioavailability in monkey at 10 mg/kg; type: ADME, organism-based, Macaca mulatta; conditions: rhesus monkey, in vivo

half-life [1]: > 2.13 h
IC50 [2]: 39 nM
AUC [7]: 31300 ng·h/mL
Vd [11]: 0.36 L/kg
IC50 [12]: 1200 nM
bioavailability [13]: 5%
Activity [16]: inactive
Activity [18]: inactive
Activity [19]: inactive
bioavailability [20]: 27%
SMILES: O[C@@H](CN1c2cccc(-c3cccc(OC(F)(F)F)c3)c2CC[C@@H]1c1cccc(OC(F)(F)C(F)F)c1)C(F)(F)F
Activity (Cynomolgus monkey [3]): 32%
Activity (Cynomolgus monkey [4]): Dose-dependent effect
Activity (Mus musculus [5]): Dose-dependent effect
Activity (Cynomolgus monkey [6]): Dose-dependent effect
Activity (Mus musculus [8]): 36%
Activity (Hamster [9]): Dose-dependent effect
Activity (Cynomolgus monkey [10]): 16%
inhibition in vivo at 10 mg/kg (Cynomolgus monkey [14]): 51%
Activity (Hamster [15]): 36%
Activity (Mus musculus [17]): 25%
